The results in this text go back to patent publication US6043357A, “HIV protease inhibitors” (The University of Queensland, priority 1994, dated 2000).

The target in test [1] is HIV-1 protease (Human immunodeficiency virus type 1 group M subtype B, UniProt P03369). Put plainly: biochemical. As for the experimental part: HIV-1 protease activity was measured at 37° C. using a continuous fluorimetric assay based on the method of Toth et al., (Toth et al., 1990, Int. J. Pept. Res. 36 544-550). The substrate, 2-aminobenzoyl-threonine-isoleucine-norleucine-(p-nitro)-phenylalanine-glutamine-arginine-NH2 (Abz-NF^* -6), was synthesised by solid phase peptide synthesis (Kent et al., 1991, In: Peptides 1990: Proceedings of the Twenty-First European Peptide Symposium (Girault, E. and Andrew, D. eds.) pp 172-173, ESCOM, Leiden). Enzyme activity was measured as the increase in fluorescence intensity upon substrate hydrolysis. The change in fluorescence intensity was monitored with a Perkin Elmer LS50B luminescence spectrometer fitted with a thermostatted micro cuvette holder. Measurements were carried out using an excitation wavelength of 320 nm (bandwith 5 nm) and an emission wavelength of […] (bandwith 5 nm).
Inhibition assays were routinely carried out at pH 6.5 and μ=0.1 M using a single substrate concentration. The assay mixtures contained 50 μM Abz-NF^* -6 in 100 mM 2-(N-morpholino)ethanesulphonate buffer, containing 10% (v/v) glycerol and 50 μg/ml bovine serum albumin, in a total final volume of 400 μl. Where inhibitors had to be dissolved in dimethyl sulphoxide or other organic solvents, the final concentration of solvent in the control and inhibition assays were kept absolutely constant because of the severe inhibitory effect of some solvents on the enzyme activity (Bergman et al., 1992, 17th Ann. Lorne Conf. on Protein Struct. and Funct. Abstr.). In all assays, the reaction was initiated by the addition of 10 μl of enzyme solution.

The subject of test [2] is HIV. Put plainly: Activity against HIV in cells / cell culture. Format: cell-based.
In test [3] the test system is HIV-1 (strain TC354). Put plainly: Assay for anti-viral activity: HIV-1 (strain TC354) replication in PHA-stimulated cord blood mononuclear cells, reverse transcriptase activity. The test is classed as cell-based. The following applies: read-out: effective concentration, inhibition of virus replication. As for the experimental part: Method: Target cells (PHA-stimulated cord blood mononuclear cells) were washed free of PHA and inoculated with HIV-1 (strain TC354) at a multiplicity of infection of 1, in the presence of 20 μg/ml DEAE-dextran for 30 mins. Cells were washed to remove unbound virus and residual DEAE-dextran. 10^5 cells were added to each well of 96 well plate, solutions of test compounds were added, each tested in triplicate. Dilutions were prepared in RPMI/1640. Tissue culture medium (RPMI/1640 buffer, 10% FCS, 20 U/ml […]) was added to a final volume of 200 μl. Reverse transcriptase activity was assayed four days post inoculation, RT activity >30 cpm was considered positive for HIV-1 replication.

The mark [4] stands for this setting: Table 4, rac (R and S isomer together), read-out: IC50.

Entries after “also recorded” stand apart in the source; their conditions may differ. Where two headings read alike, the source gives them in different places.

By IC50 is commonly meant the point on the concentration scale where inhibition reaches its midpoint. Consider “Ac-Ser-Leu-Asn-Phe-[CHOH--CH2 ]-Pro-Ile-Val-OMe (Ac-SLNFPIV-OMe; also: hydroxyethylene isostere [CHOH-CH2] replaces the Phe-Pro amide bond) [JG-365, reference compound]”, for which the IC50 in test [1] (R-isomer of JG-365, pH 6.5, 37° C., read-out: IC50 (Inhibitor Potency)) turned out to be 44 nM; in test [1] (S-isomer of JG-365, pH 6.5, 37° C., read-out: IC50 (Inhibitor Potency)), 6 nM. In test [2], the “anti-viral activity, stated in words” value was “do not have anti-viral activity”. The “activity against HIV in cells” value in test [2] (at 100 μM) is “inactive”.
`CC[C@H](C)[C@@H]1NC(=O)[C@@H](NC[C@@H](O)[C@H](Cc2ccccc2)NC(=O)[C@@H](NC(=O)c2ccc3ccccc3n2)C(C)C)Cc2ccc(cc2)OCCCNC1=O` [Compound 93]: the “protease inhibition, stated in words” value in test [1] is on record as “very potent inhibitor of HIV-1 protease; also recorded: equipotent as a protease inhibitor with the DuPont-Merck compound DM323”. For the same compound, the IC50 in test [1] (Table 9, R isomer, read-out: IC50) was 1 nM; in test [2] (Human immunodeficiency virus 1, read-out: IC50, anti-viral activity against HIV in cell culture), less than 1000 nM. Also, in test [3] (four days post inoculation), the EC50 was 100000 nM.
Turning to `CC(C)CCN(C[C@@H](O)[C@@H]1Cc2ccc(cc2)OCCCCC(=O)N[C@@H](C(C)C)C(=O)N1)S(=O)(=O)c1ccccc1` [Compound 68], the EC50 in test [3] (Human immunodeficiency virus 1, 96 h, four days post inoculation) was found to be 100 nM.
With `CC[C@H](C)[C@H](NC(=O)[C@@H]1CCCN1C[C@H](O)[C@@H]1Cc2ccc(cc2)OCCCC(=O)N[C@@H](CC(N)=O)C(=O)N1)C(N)=O` [Compound 5], in test [1], the “protease inhibition, stated in words” value is “reduced potency”. Besides, the IC50 in test [1] (read-out: IC50) turned out to be 850 nM.
For `CC(C)(C)NC(=O)[C@@H]1CCCCN1C[C@@H](O)[C@@H]1Cc2ccc(cc2)OCCCC(=O)N[C@@H](CC(N)=O)C(=O)N1` [Compound 44], the 50% inhibitory concentration (IC50) in test [1] was found to be 16 nM. The EC50 in test [3] (Human immunodeficiency virus 1, 96 h) is 1000 nM. Further, in test [2], the “anti-viral activity, stated in words” value is “poor inhibitor of viral replication in cells”.
`CC(C)(C)NC(=O)C(Cc1ccccc1)NC[C@H](O)[C@@H]1Cc2ccc(cc2)OCCCC(=O)N[C@@H](CC(N)=O)C(=O)N1` (stereo partly drawn) [Compound 31]: the IC50 in test [1] (setting [4]) was 70000 nM.
In test [1] (pH 6.5), `CC[C@H](C)[C@H](NC(=O)[C@@H]1CCCN1C[C@H](O)[C@@H]1Cc2ccc(cc2)OCC(=O)N[C@@H](CCCNC(=N)N)C(=O)N[C@@H](CC(N)=O)C(=O)N1)C(=O)N[C@H](C(N)=O)C(C)C` [Compound 22] registered an IC50 of 42 nM.
`CC(C)CNC(=O)C(Cc1ccccc1)NC[C@H](O)[C@@H]1Cc2ccc(cc2)OCCCC(=O)N[C@@H](CC(N)=O)C(=O)N1` (stereo partly drawn) [Compound 35] gave an IC50 in test [1] of 5200 nM.
As to `CC(C)(C)NC(=O)C(Cc1ccccc1)NC[C@@H](O)[C@@H]1Cc2ccc(cc2)OCCCC(=O)N[C@@H](CC(N)=O)C(=O)N1` (stereo partly drawn) [Compound 30], the IC50 in test [1] (setting [4]) was 70000 nM.
